Reference: PMC10728220, “Novel 3-(pyrazol-4-yl)-2-(1H-indole-3-carbonyl)acrylonitrile derivatives induce intrinsic and extrinsic apoptotic death mediated P53 in HCT116 colon carcinoma” (Scientific Reports, 2023)
Entries after “also recorded” stand apart in the source; their conditions may differ.

Experiments:
lung carcinoma (A549) = test: Cytotoxic MTT assay, A549; assay type: cell-based; conditions: Homo sapiens, 48 h treatment
Experimental: MTT protocol was performed to study the viability of cells after treatment with the tested compounds. The studied cell lines (A549 and HCT116) were cultured and grown in RPMI‐1640 media, while HFB4 cells were reserved in DMEM‐F12 media. Both media were supplemented with 10% FBS, 1% L‐glutamine, and 1% antibiotic–antimycotic mixture. The cell lines were grown at conditions of 37 °C and 5% CO2. 10 × 10^3 of A549, and HCT116 cells and the same count of normal melanocytes (HFB4) were cultured in a 96‐well plate. The selected cultured cells were kept at 37°C and 5% CO2 overnight. Then, the medium was discarded after 24 h of incubation, and 100 µL from different concentrations of the studied compounds dissolved in fresh medium without serum, with final concentrations of 100, 50, 25, 12.5, 6.25, 3.125, 1.56, and 0.78 µg/mL was added. The treated cells were then incubated for 48 h. After that, 50 µL of MTT was added into each well for 4 h for the formazan crystals to be formed. Finally, 200 µl of 10% sodium dodecyl sulphate (SDS) was added to each well, and plates were kept at room temperature overnight to allow the reaction to be stopped. The optical density at 575 nm was read using a microplate multi-well reader, and the percentage of cell viability was calculated. The dose–response curve was drawn to calculate the IC50 values for each compound using the prism GraphPad 5 program, [84]. 5 Fluorouracil, a commercial anticancer drug was used as a reference drug (positive control). Negative untreated cell control was used in this assay.

HCT116 cells = test: DNA fragmentation, agarose gel electrophoresis; assay type: cell-based, human; conditions: HCT116, 6.76 µg/mL, 48 h, 2% agarose gel
Experimental: Both control and treated cells were incubated for 48h. Then cells of both two samples were harvested for DNA fragmentation measurements using a SIGMA DNA fragmentation imaging kit with catalogue number 06432344001. To verify the validity of the DNA of both control and cells treated with 6.76 µg/mL of chalcone 7f, we carried out the loading of all samples on 2% agarose gel containing 1 µg/mL ethidium bromide and visualized by ultraviolet transillumination.
The DNA gel electrophoresis laddering assay in the HCT116 cell line was performed according to the instructions of Yawata[87] with some modifications. Briefly, after 48 h of exposure of the HCT116 cancer cell line to compound 7f in Petri dishes (60 × 15 mm, Greiner), the cells were suspended in 1 ml of medium and then centrifuged at 900 rpm for 10 min. […] About 1 × 10^6 cells of HCT116 were treated with the IC50 value of compound 7f. Then, the treated cells were collected via trypsinization and washed with Dulbecco’s Phosphate Buffered Saline. Afterwards, the cells were treated with the lysis buffer (5 mM ethylenediaminetetraacetic acid (EDTA), 0.5% Triton X-100, 10 mM Tris (pH 7.4), and 150 mM NaCl) for 35 min on ice. […] At last, the fragmented DNA percentage was detected by performing gel electrophoresis using 2% agarose gel containing 0.1 μg/ml ethidium bromide (Supplementary File 1).

Structure (SMILES): N#C/C(=C\c1cn(-c2ccccc2)nc1-c1ccc([N+](=O)[O-])cc1)C(=O)c1c[nH]c2ccccc12 [Compound 7f, (E)-2-(1H-Indole-3-carbonyl)-3-(3-(4-nitrophenyl)-1-phenyl-1H-pyrazol-4-yl)acrylonitrile]
- IC50 (lung carcinoma (A549)): > 100 µg/mL
- effect on genomic DNA (DNA fragmentation) (HCT116 cells): completely deteriorated the genomic DNA; also recorded: completely degraded the genomic DNA
